Experimental findings from US7001983B1, “Antipathogenic synthetic peptides and compositions comprising them” (priority 1997, dated 2006) are described below.

Square brackets hold non-standard residues; d marks the D form. Peptide text beside a SMILES is read from it.

What all share (type): cell-based
The test system of data set [1] is Bacillus megaterium Bm11. Particulars: 100% inhibition of growth after 18–20 h.
Data set [2] has as its system human red blood cells (hRBC). The experiment in a line: Hemolysis of human red blood cells. To be noted: hRBC, 30 min at 37° C. As to the method:
(ix) Hemolysis of human red blood cells. The peptides were tested for their hemolytic activities against human red blood cells (hRBC). Fresh hRBC with EDTA were rinsed 3 times with PBS (35 mM phosphate buffer/0.15 M NaCl, pH 7.3) by centrifugation for 10 min at 800 g and resuspended in PBS. Peptides dissolved in PBS were then added to 50 μL of a solution of the stock hRBC in PBS to reach a final volume of 100 μL (final erythrocyte concentration, 5% v/v). The resulting suspension was incubated under agitation for 30 min at 37° C. The samples were then centrifuged at 800 g for 10 min. Release of hemoglobin was monitored by measuring the absorbance of the supernatant at 540 nm. Controls for zero hemolysis (blank) and 100% hemolysis consisted of hRBC suspended in PBS and Triton 1%, respectively.

For data set [3], the system named is Escherichia coli D21. Particulars: 100% inhibition of growth after 18–20 h.

Take `CC[C@H](C)[C@H](NC(=O)[C@H](CCCCN)NC(=O)[C@@H]1CCCN1C(=O)[C@@H](NC(=O)[C@H](CC(C)C)NC(=O)[C@H](C)NC(=O)[C@H](Cc1ccccc1)NC(=O)[C@H](Cc1ccccc1)NC(=O)CN)[C@@H](C)CC)C(=O)N[C@H](C(=O)N[C@@H](CO)C(=O)N[C@@H](CO)C(=O)N1CCC[C@@H]1C(=O)N[C@@H](CC(C)C)C(=O)N[C@@H](Cc1ccccc1)C(=O)N[C@@H](CCCCN)C(=O)N[C@H](C(=O)N[C@@H](CC(C)C)C(=O)N[C@@H](CC(C)C)C(=O)N[C@@H](CO)C(=O)N[C@@H](C)C(=O)N[C@H](C(=O)NCC(=O)N[C@@H](CO)C(=O)N[C@@H](C)C(=O)N[C@@H](CC(C)C)C(=O)N[C@@H](CO)C(=O)N[C@@H](CO)C(=O)N[C@@H](CO)C(=O)NCC(=O)NCC(=O)N[C@@H](CCC(N)=O)C(=O)N[C@@H](CCC(=O)NCCN)C(=O)NCCN)C(C)C)[C@@H](C)O)[C@@H](C)CC` [Peptide 9, [D]P^13-TApar]: the “Minimal Inhibitory Concentration B. megaterium (Bm11)” value in data set [1] was determined as 1.5 µM. Further, in data set [2], the “% hemolysis at 50 μM peptide” value turned out to be 83%. Further, the “Minimal Inhibitory Concentration E. coli (D21)” value in data set [3] is 3 µM.
`CC[C@H](C)[C@H](NC(=O)[C@H](CCCCN)NC(=O)[C@@H]1CCCN1C(=O)[C@@H](NC(=O)[C@@H](CC(C)C)NC(=O)[C@H](C)NC(=O)[C@H](Cc1ccccc1)NC(=O)[C@H](Cc1ccccc1)NC(=O)CN)[C@@H](C)CC)C(=O)N[C@H](C(=O)N[C@@H](CO)C(=O)N[C@@H](CO)C(=O)N1CCC[C@H]1C(=O)N[C@@H](CC(C)C)C(=O)N[C@@H](Cc1ccccc1)C(=O)N[C@@H](CCCCN)C(=O)N[C@H](C(=O)N[C@@H](CC(C)C)C(=O)N[C@H](CC(C)C)C(=O)N[C@@H](CO)C(=O)N[C@@H](C)C(=O)N[C@H](C(=O)NCC(=O)N[C@@H](CO)C(=O)N[C@@H](C)C(=O)N[C@@H](CC(C)C)C(=O)N[C@@H](CO)C(=O)N[C@@H](CO)C(=O)N[C@@H](CO)C(=O)NCC(=O)NCC(=O)N[C@@H](CCC(N)=O)C(=O)N[C@@H](CCC(=O)NCCN)C(=O)NCCN)C(C)C)[C@@H](C)O)[C@@H](C)CC` [Peptide 10, [D]L^5L^19-TApar]: the “Minimal Inhibitory Concentration B. megaterium (Bm11)” value in data set [1] was found to be 1.3 µM. Further, the “% hemolysis at 50 μM peptide” value in data set [2] amounted to 56%. Further, the “Minimal Inhibitory Concentration E. coli (D21)” value in data set [3] is 3 µM.
Regarding `CC[C@H](C)[C@H](NC(=O)[C@H](CCCCN)NC(=O)[C@H]1CCCN1C(=O)[C@@H](NC(=O)[C@H](CC(C)C)NC(=O)[C@H](C)NC(=O)[C@H](Cc1ccccc1)NC(=O)[C@H](Cc1ccccc1)NC(=O)CN)[C@@H](C)CC)C(=O)N[C@H](C(=O)N[C@@H](CO)C(=O)N[C@@H](CO)C(=O)N1CCC[C@H]1C(=O)N[C@@H](CC(C)C)C(=O)N[C@@H](Cc1ccccc1)C(=O)N[C@@H](CCCCN)C(=O)N[C@H](C(=O)N[C@@H](CC(C)C)C(=O)N[C@H](CC(C)C)C(=O)N[C@@H](CO)C(=O)N[C@@H](C)C(=O)N[C@H](C(=O)NCC(=O)N[C@@H](CO)C(=O)N[C@@H](C)C(=O)N[C@@H](CC(C)C)C(=O)N[C@@H](CO)C(=O)N[C@@H](CO)C(=O)N[C@@H](CO)C(=O)NCC(=O)NCC(=O)N[C@@H](CCC(N)=O)C(=O)N[C@@H](CCC(=O)NCCN)C(=O)NCCN)C(C)C)[C@@H](C)O)[C@@H](C)CC` [Peptide 11, [D]P^7L^19-TApar], in data set [1], the “Minimal Inhibitory Concentration B. megaterium (Bm11)” value came out at 1.5 µM. Further, the “% hemolysis at 50 μM peptide” value in data set [2] worked out at 82%. Also, the “Minimal Inhibitory Concentration E. coli (D21)” value in data set [3] was 3 µM.
`CC[C@H](C)[C@H](NC(=O)[C@H](CCCCN)NC(=O)[C@H]1CCCN1C(=O)[C@@H](NC(=O)[C@H](CC(C)C)NC(=O)[C@H](C)NC(=O)[C@H](Cc1ccccc1)NC(=O)[C@H](Cc1ccccc1)NC(=O)CN)[C@@H](C)CC)C(=O)N[C@H](C(=O)N[C@@H](CO)C(=O)N[C@@H](CO)C(=O)N1CCC[C@H]1C(=O)N[C@@H](CC(C)C)C(=O)N[C@@H](Cc1ccccc1)C(=O)N[C@@H](CCCCN)C(=O)N[C@H](C(=O)N[C@@H](CC(C)C)C(=O)N[C@@H](CC(C)C)C(=O)N[C@@H](CO)C(=O)N[C@@H](C)C(=O)N[C@H](C(=O)NCCN)C(C)C)[C@@H](C)O)[C@@H](C)CC` [Peptide 17, [D]P^7[1-22]-TApar]: the “Minimal Inhibitory Concentration B. megaterium (Bm11)” value in data set [1] turned out to be 1 µM. For the same compound, the “% hemolysis at 50 μM peptide” value in data set [2] is listed as 17%. Moreover, in data set [3], the “Minimal Inhibitory Concentration E. coli (D21)” value came out at 10 µM.
Take `CC(C)C[C@H](NC(=O)[C@H](CC(C)C)NC(=O)[C@@H](CC(C)C)NC(=O)[C@H](N)CCCCN)C(=O)N[C@H](CCCCN)C(=O)N[C@H](CC(C)C)C(=O)N[C@H](CC(C)C)C(=O)N[C@@H](CC(C)C)C(=O)N[C@H](CCCCN)C(=O)N[C@@H](CC(C)C)C(=O)N[C@H](CC(C)C)C(=O)N[C@H](CCCCN)C(N)=O` [Peptide 26, [D]-K^1,5,9,12L^2,6,7,11-K4L8] (H-[dK][dL]LL[dK][dL][dL]L[dK]L[dL][dK]-NH2): the “Minimal Inhibitory Concentration B. megaterium (Bm11)” value in data set [1] turned out to be 0.5 µM. Besides, the “% hemolysis at 100 μM” value in data set [2] was found to be 0%. Besides, in data set [3], the “Minimal Inhibitory Concentration E. coli (D21)” value came to 4 µM.
Turning to `CC(C)C[C@H](NC(=O)[C@H](CC(C)C)NC(=O)[C@@H](CC(C)C)NC(=O)[C@H](N)CCCCN)C(=O)N[C@H](CCCCN)C(=O)N[C@H](CC(C)C)C(=O)N[C@H](CCCCN)C(=O)N[C@@H](CC(C)C)C(=O)N[C@H](CCCCN)C(=O)N[C@@H](CC(C)C)C(=O)N[C@H](CC(C)C)C(=O)N[C@H](CCCCN)C(N)=O` [Peptide 27, [D]-K^1,5,7,9,12L^2,6,11-K5L7] (H-[dK][dL]LL[dK][dL][dK]L[dK]L[dL][dK]-NH2), in data set [1], the “Minimal Inhibitory Concentration B. megaterium (Bm11)” value is 0.2 µM. Moreover, in data set [2], the “% hemolysis at 100 μM” value is listed as 0%. Besides, the “Minimal Inhibitory Concentration E. coli (D21)” value in data set [3] was found to be 7 µM.
Turning to `CC(C)C[C@H](NC(=O)[C@@H](CC(C)C)NC(=O)[C@H](CC(C)C)NC(=O)[C@@H](CC(C)C)NC(=O)[C@@H](N)CCCCN)C(=O)N[C@@H](CCCCN)C(=O)O` [Peptide 28, [D]-L^2,4-K2L4] (H-K[dL]L[dL]LK-OH), the “Minimal Inhibitory Concentration B. megaterium (Bm11)” value in data set [1] was 50 µM. For the same compound, the “% hemolysis at 100 μM” value in data set [2] is 0%. Also, in data set [3], the “Minimal Inhibitory Concentration E. coli (D21)” value amounted to 200 µM.
With `CC(C)C[C@H](NC(=O)[C@@H](CC(C)C)NC(=O)[C@H](CCCCN)NC(=O)[C@@H](CC(C)C)NC(=O)[C@H](CC(C)C)NC(=O)[C@@H](CC(C)C)NC(=O)[C@@H](N)CCCCN)C(=O)N[C@@H](CCCCN)C(=O)O` [Peptide 29, [D]-L^2,4,6-K3L5] (H-K[dL]L[dL]K[dL]LK-OH), the “Minimal Inhibitory Concentration B. megaterium (Bm11)” value in data set [1] is 3 µM. The “% hemolysis at 100 μM” value in data set [2] came to 0%. The “Minimal Inhibitory Concentration E. coli (D21)” value in data set [3] turned out to be 3 µM.
Take `C[C@H](NC(=O)[C@H](C)NC(=O)[C@H](CCCCN)NC(=O)[C@@H](C)NC(=O)[C@@H](C)NC(=O)[C@H](C)NC(=O)[C@@H](N)CCCCN)C(=O)N[C@H](C)C(=O)N[C@@H](CCCCN)C(=O)N[C@H](C)C(=O)N[C@@H](C)C(=O)N[C@@H](CCCCN)C(N)=O` [Peptide 33, [D]-A^3,4,8,10-K4A8] (H-KA[dA][dA]KAA[dA]K[dA]AK-NH2): the “Minimal Inhibitory Concentration B. megaterium (Bm11)” value in data set [1] was 1 µM. Also, the “% hemolysis at 100 μM” value in data set [2] is 0%. In addition, the “Minimal Inhibitory Concentration E. coli (D21)” value in data set [3] came to 12 µM.
